Results as given in article PMC10857906, “PROTAC-mediated NR4A1 degradation as a novel strategy for cancer immunotherapy” (The Journal of Experimental Medicine, 2024).

Tests used:
NR4A2 = target: T1, NR4A2 (Homo sapiens, UniProt P43354); assay: NR4A2 protein level after treatment (immunoblotting); format: cell-based
T1 construct: endogenous in cells
Procedure: (§1) Samples were lysed using radioimmunoprecipitation assay buffer (RIPA) lysis buffer (150 mM NaCl, 5 mM EDTA, 50 mM Tris pH 8.0, 0.5% sodium deoxycholate, 1% NP-40, 0.1% SDS) supplemented with 1 mM dithiothreitol and protease inhibitors. The lysates were separated by SDS-PAGE and analyzed using standard western blotting procedures ([Khan et al., 2019]). Antibodies: human NR4A1 (ab153914, 1:1,000; Abcam), mouse NR4A1 (14-5965-82, 1:1,000; Invitrogen), NR4A2 (AV38753, 1:1,000; Sigma-Aldrich), NR4A3 (TA804893, 1: 1,000; Thermo Fisher Scientific), VHL (68547, 1:1,000; Cell Signaling), β-actin (13E5, 1:5,000; Cell Signaling), β-tubulin (9F3, 1: 5,000; Cell Signaling), and GAPDH (D16H11, 1: 5,000; Cell Signaling) were employed for protein detection.

VHL = target: T2, VHL (Homo sapiens, UniProt P40337); assay: VHL protein level after treatment (immunoblotting); format: cell-based; conditions: human melanoma cell lines, 16 h
T2 construct: endogenous in cells; host or cells: CHL-1, A375, WM164, M229 human melanoma cells
Procedure: as §1

NR4A1 mRNA = NR4A1 mRNA by qPCR in CHL-1 cells; format: cell-based, human; conditions: 500 nM, ACTB as control
Procedure: Total RNA was extracted from cells using RNeasy Kits (74004; QIAGEN) following the manufacturer’s instructions. cDNA synthesis was performed using SuperScript III Reverse Transcriptase (18080044; Thermo Fisher Scientific) with 100 ng RNA as the template. Amplification of cDNA was carried out using 2× PowerUP SYBR Green Master Mix (A25778; Thermo Fisher Scientific). Each reaction was conducted in triplicates and results were normalized to the expression of a housekeeping gene. Primer (Eurofins): human β-actin (forward sequence: 5′-CACCATTGGCAATGAGCGGTTC-3′; reverse sequence: 5′-AGGTCTTTGCGGATGTCCACGT-3′) and human NR4A1 (forward sequence: 5′-GGACAACGCTTCATGCCAGCAT-3′; reverse sequence: 5′-CCTTGTTAGCCAGGCAGATGTAC-3′).

OT-1 CD8^+ Texh cells = assay: T cell exhaustion in vitro, mouse OT-1 CD8^+ T cells; format: cell-based; conditions: 500 nM, 48 h
Procedure: We conducted experiments involving the isolations and treatments of CD8^+ T cells from both OT-1 mice (C57BL/6-Tg(TcraTcrb)1100Mjb/J; Jackson Laboratories) and T cells from human PBMCs. CD8^+ T cells were isolated from OT-1 mice using the EasySep Mouse CD8 T Cell Isolation Kit, followed by daily treatment with 10 ng/ml ovalbumin (257–264) (S7951-1MG; Sigma-Aldrich) for specified durations. After 3 days of ovalbumin treatment, OT-1 CD8^+ T cells were activated, and after 7 days of treatment, they reached a state of exhaustion. Human T cells were isolated from PBMCs using the EasySep Human CD3 Positive Selection Kit II (17851; STEMCELL) and cultured with Dynabeads (Cell/Dynabeads: 1:1, A56992; Thermo Fisher Scientific) for 3 days to induce activation and for 7 days to induce exhaustion. Both mouse and human T cells received a treatment of 500 nM NR-V04 2 days prior to harvesting. To characterize the T cell subtypes, we employed specific flow cytometry antibodies and conducted flow cytometry analysis.
Mouse tumors were excised and ∼200 mg of tumor tissue was enzymatically and mechanically digested using the mouse Tumor Dissociation Kit (Miltenyi Biotec) to obtain a single-cell suspension. […] Flow cytometry was performed on a three laser Cytek Aurora Cytometer (Cytek Biosciences) and analyzed using FlowJo software (BD Biosciences). […]

T2 sequence (P40337 whole entry): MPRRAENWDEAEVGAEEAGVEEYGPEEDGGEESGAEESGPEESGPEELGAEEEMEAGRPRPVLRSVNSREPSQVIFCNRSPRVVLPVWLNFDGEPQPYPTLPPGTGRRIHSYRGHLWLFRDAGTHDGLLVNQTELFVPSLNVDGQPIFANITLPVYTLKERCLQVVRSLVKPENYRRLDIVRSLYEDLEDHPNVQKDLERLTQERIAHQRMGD
T1 sequence (P43354 whole entry): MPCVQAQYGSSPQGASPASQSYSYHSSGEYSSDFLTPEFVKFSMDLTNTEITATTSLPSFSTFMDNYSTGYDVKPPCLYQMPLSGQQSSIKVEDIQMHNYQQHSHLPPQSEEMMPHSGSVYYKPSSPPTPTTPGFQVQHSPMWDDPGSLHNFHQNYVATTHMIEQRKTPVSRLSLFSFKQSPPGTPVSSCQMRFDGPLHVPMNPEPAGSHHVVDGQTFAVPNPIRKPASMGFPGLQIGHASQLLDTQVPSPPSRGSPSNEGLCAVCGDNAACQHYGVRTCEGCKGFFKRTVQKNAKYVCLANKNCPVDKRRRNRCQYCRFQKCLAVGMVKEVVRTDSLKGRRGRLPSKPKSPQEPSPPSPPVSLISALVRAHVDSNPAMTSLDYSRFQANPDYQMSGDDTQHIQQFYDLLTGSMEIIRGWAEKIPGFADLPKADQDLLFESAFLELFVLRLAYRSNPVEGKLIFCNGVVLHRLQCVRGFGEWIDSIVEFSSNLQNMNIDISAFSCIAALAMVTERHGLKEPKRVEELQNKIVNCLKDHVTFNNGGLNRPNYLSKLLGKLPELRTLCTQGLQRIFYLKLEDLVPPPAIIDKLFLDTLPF

Compound: CC1=C(O)C(=O)C=C2C1=CC=C1[C@@]2(C)CC[C@@]2(C)[C@@H]3C[C@](C)(C(=O)NCCOCCOCCOCCOCC(=O)N[C@H](C(=O)N4C[C@H](O)C[C@H]4C(=O)N[C@@H](C)c4ccc(-c5scnc5C)cc4)C(C)(C)C)CC[C@]3(C)CC[C@]12C [NR-V04]
- NR4A2 protein level (selectivity in the NR4A family) (NR4A2): sparing NR4A2 and NR4A3
- VHL protein level (VHL): accumulation of VHL protein
- NR4A1 mRNA level (NR4A1 mRNA): increased NR4A1 mRNA after 4 h
- CD8^+ Texh cells (PD1^+Tim3^+) (OT-1 CD8^+ Texh cells): significant reduction in CD8^+ Texh cells
